Patent US6900008B2, “Methods and formulations for minimizing spasticity in blood vessel grafts” (Emory University, priority 2001, dated 2005)
Marks after values point to notes of the source that are not given here.

How the values were obtained:
[1] = system: canine radial artery segments; test: Norepinephrine-induced contraction of pretreated canine radial artery segments in organ chambers; assay type: cell-based; conditions: for Maximal constriction response to norepinephrine, % of KCl response: KCl 30 mmol/L
Procedure: (§1) Canine radial arteries were harvested without pedicles, and incubated in control buffer or solutions of papavarine (10^−6M), 2, 3-butadione monoxime (BDM, 10^−6M) (a putative protein phosphatase) or phenoxybenzamine (10^−6M) for a period of 30 minutes. The arteries were then washed with buffer and stored in a drug-free culture medium for a set time period (2 hours, 24 hours or 48 hours per example). After storage, vasopressors norepinephrine or phenylephrine were added at incremental concentrations ranging from 0.7 to 3.5 μmol/L (norepinephrine) or 0.300 to 1.5 μmol/L (phenylephrine) to all arterial samples to attempt to induce spasticity or vasoconstriction. The degree of vasoconstriction was then quantified in organ chambers. The responses of the arterial samples to norepinephrine or phenylephrine were compared with spasticity or constriction with receptor-independent potassium chloride (KCl) at 30 mmol/L.
(§2) The maximum responses of untreated and treated radial artery segments of KCl, phenylephrine and norepinephrine (in grams of tension) are summarized in Table 1. The constriction (contraction) responses to phenylephrine and norepinephrine given below are represented as a percentage of the responses to KCl, i.e. 100×(grams tension norepinephrine/grams tension KCl).

[2] = system: canine radial artery segments; test: Phenylephrine-induced contraction of pretreated canine radial artery segments in organ chambers; assay type: cell-based; conditions: for Constriction response to the maximum concentration of phenylephrine, % of KCl response: KCl 30 mmol/L
Procedure: as §1, §2

[3] = system: radial artery segments (endothelium); test: Endothelial relaxation response to acetylcholine of stored radial artery segments; assay type: cell-based, canine
Text: The endothelium contributes to the overall vascular tone by tonic release of autacoids such as nitric oxide among other vasoactive substances. In addition, any attenuation of function related to autacoid release by phenoxybenzamine or its diluents would be undesirable.

[4] = system: human radial artery segments; test: Phenylephrine-induced vasoconstriction of human radial artery rings in organ chambers; assay type: cell-based; conditions: 15 μM PE
Procedure: Radial artery (RA) segments were obtained from patients having elective coronary artery bypass grafting with or without cardiopulmonary bypass at the Crawford Long Hospital of Emory University. A modified Allen's test was performed to assess the adequacy of collateral circulation to the hand preoperatively. The RA was harvested with its pedicle containing the venae comitantes, perivascular fat and areolar tissue (no fasciotomy) using a “no-touch” technique. Branches of the RA were ligated with vascular clips. A subset of the radial artery grafts had the musculofascial tissue incised (with fasciotomy) to expose the aerolar tissue adjacent to the graft. The RA was then placed in a solution containing 20 mL heparinized blood, 1.6 mL 1% lidocaine and 0.4 mL papaverine (30 mg/mL) for approximately 30 minutes. […] Prior to its placement in the aortocoronary position, a small segment of the RA was obtained and immediately placed in Krebs-Henseleit (K-H) buffer (118 mmol/L NaCl, 4.7 mmol/L KCl, 1.2 mmol/L KH2PO4, 1.2 mmol/L MgSO4, 2.5 mmol/L CaCl2, 12.5 mmol/L NaHCO3, and 10 mmol/L glucose) at 4° C., pH 7.4 and transported to the Cardiothoracic Research Laboratory.
The harvested radial artery segment with or without fasciotomy was placed into K-H buffer pH 7.4 with either 10, 100 or 1000 μM PBZ or vehicle. The radial artery was flushed intraluminally twice with this solution, once at the beginning and once at the end of a 30 minute incubation period, which approximates the time between RA harvest and placement in the aortocoronary position. In addition, Control RA segments were obtained prior to intraoperative pretreatment of the conduit with the papaverine/lidocaine solution and received no other treatment. The segments were prepared for placement in organ chambers by carefully skeletonizing them in cold K-H buffer and cutting them into rings three to five mm in length. The rings were then mounted on stainless steel hooks, connected to FT-03 force displacement transducers, and placed into Radnoti organ chambers (Radnoti Glass, Monrovia, Calif. containing 7 mL of oxygenated (95% O2, 5% CO2) K-H buffer at 37° C. and pH 7.4. Indomethacin (10 μmol/L) was added to the buffer to block responses to endogenous prostanoids. The rings were stabilized for one hour with frequent buffer changes and set to a predetermined tension that allowed 75% of maximal contraction to 30 mM potassium chloride (KCl).
The rings were then incubated with increasing concentrations of PE (0.5 to 15 μM) or NE (0.5 to 15 μM). After the highest concentration of alpha adrenergic agent was achieved, 30 mM KCl was added to the bath to quantify the maximal nonreceptor-mediated constriction. In randomly selected vessels, the integrity of the radial artery endothelium was also tested for its receptor-dependent relaxation response to incremental concentrations of acetylcholine (ACh), a stimulator of nitric oxide synthase. The rings were precontracted with the thromboxane A2 mimetic U46619 (1.4 nmol/L), and then exposed to increasing concentrations of Ach (1 nmol/L to 11.7 μmol/L) in the presence of 10 μM indomethacin.
(§3) The changes in isometric force were quantified using an analog-to-digital converter sampling at 2 Hz. The responses were analyzed using a Windows-based videographics program ([…], Wake Forest University, Winston-Salem, N.C.). The force of contraction elicited by the exposure to increasing concentrations of PE and NE was expressed as a percentage of the maximal contraction generated by KCl in each ring. The degree of relaxation after exposure to ACh was expressed as the percent tension reduction from the maximal force of contraction obtained from U46619.
If a significant difference between groups was assigned by ANOVA, a post-hoc Student-Newman-Keuls test was applied to locate the source of differences. A p value of <0.05 was considered to be statistically significant. All data are reported as means±the standard error of the mean.

[5] = system: human radial artery segments; test: Norepinephrine-induced vasoconstriction of human radial artery rings in organ chambers; assay type: cell-based
Procedure: (§4) Radial artery (RA) segments were obtained from patients having elective coronary artery bypass grafting with or without cardiopulmonary bypass at the Crawford Long Hospital of Emory University. A modified Allen's test was performed to assess the adequacy of collateral circulation to the hand preoperatively. The RA was harvested with its pedicle containing the venae comitantes, perivascular fat and areolar tissue (no fasciotomy) using a “no-touch” technique. Branches of the RA were ligated with vascular clips. A subset of the radial artery grafts had the musculofascial tissue incised (with fasciotomy) to expose the aerolar tissue adjacent to the graft. […]
(§5) The rings were then incubated with increasing concentrations of PE (0.5 to 15 μM) or NE (0.5 to 15 μM). After the highest concentration of alpha adrenergic agent was achieved, 30 mM KCl was added to the bath to quantify the maximal nonreceptor-mediated constriction. […]
as §3, with “The degree of relaxation after exposure to ACh was expressed as the percent tension reduction from the maximal force of contraction obtained from U46619.” left out

[6] = system: human radial artery endothelium; test: Endothelial function: relaxation to acetylcholine of U46619-precontracted human radial artery rings; assay type: cell-based; conditions: 12 μM ACh; without fasciotomy; PBZ at 1000 μM where used
Procedure: as §4, §5
as §3, with “The degree of relaxation after exposure to ACh was expressed as the percent tension reduction from the maximal force of contraction obtained from U46619.” left out

[7] = 2 Hours drug-free storage after 30 min incubation with 10^−6M drug
[8] = 24 Hours drug-free storage after 30 min incubation with 10^−6M drug
[9] = 48 Hours drug-free storage after 30 min incubation with 10^−6M drug
[10] = 2 hours after 30 min pretreatment with 10^−6M drug
[11] = 48 hours after 30 min pretreatment with 10^−6M drug
[12] = 48 hours of storage, did not reach significance
[13] = after washing (2 hours) or 24 or 48 hours after the 30-minute pretreatment, 10^−6M
[14] = 24 hours after 30 min pretreatment with 10^−6M drug

CC(=O)C(C)=NO [BDM, 2,3-butadione monoxime]
Contraction response to norepinephrine from resting force (maximum response) [1, 7]: 5.69 ± 0.29 grams of tension
Contraction response to norepinephrine from resting force (maximum response) [1, 8]: 4.22 ± 0.75 grams of tension
Contraction response to norepinephrine from resting force (maximum response) [1, 9]: 7.01 ± 0.85 grams of tension
Maximal constriction response to norepinephrine, % of KCl response [1, 10]: approximately 75%
Constriction responses to norepinephrine compared with control vessels (in words) ([1]; after 24 hours and 48 hours of drug-free storage): similar
Contraction response to phenylephrine from resting force (maximum response) [2, 7]: 8.35 ± 0.79 grams of tension
Contraction response to phenylephrine from resting force (maximum response) [2, 8]: 9.43 ± 0.64 grams of tension
Contraction response to phenylephrine from resting force (maximum response) [2, 9]: 7.01 ± 0.80 grams of tension
Constriction response to the maximum concentration of phenylephrine, % of KCl response [2, 11]: approximately 39%
Constrictor responses to phenylephrine compared with control segments (in words) ([2]; at 2 hours and 24 hours): very similar

COc1ccc(Cc2nccc3cc(OC)c(OC)cc23)cc1OC [papaverine]
Contraction response to norepinephrine from resting force (maximum response) [1, 7]: 7.65 ± 0.72 grams of tension
Contraction response to norepinephrine from resting force (maximum response) [1, 8]: 10.37 ± 0.26 grams of tension
Contraction response to norepinephrine from resting force (maximum response) [1, 9]: 12.55 ± 1.22 grams of tension
Maximal constrictor response to norepinephrine compared with control vessels (in words) [1, 12]: paradoxical trend toward increased maximal constrictor response
Effect on norepinephrine-induced contraction (in words) [1, 13]: no inhibitory effect
Contraction response to phenylephrine from resting force (maximum response) [2, 7]: 14.29 ± 0.76 grams of tension
Contraction response to phenylephrine from resting force (maximum response) [2, 8]: 12.33 ± 0.76 grams of tension
Contraction response to phenylephrine from resting force (maximum response) [2, 9]: 10.46 ± 0.52 grams of tension
Maximal constrictor response to phenylephrine compared with control vessels (in words) [2, 12]: paradoxical trend toward increased maximal constrictor response
Effect on phenylephrine-induced contraction (in words) [2, 13]: no inhibitory effect

CC(COc1ccccc1)N(CCCl)Cc1ccccc1 (centres unmarked) [phenoxybenzamine]
Contraction response to norepinephrine from resting force (maximum response) [1, 7]: 0.80 ± 0.05^b grams of tension
Contraction response to norepinephrine from resting force (maximum response) [1, 8]: −0.58 ± 0.05^b grams of tension
Contraction response to norepinephrine from resting force (maximum response) [1, 9]: −1.62 ± 0.36^b grams of tension
Maximal constriction response to norepinephrine, % of KCl response [1, 10]: −7%±1%
Maximal constriction response to norepinephrine, % of KCl response [1, 14]: −5%±5%
Maximal constriction response to norepinephrine, % of KCl response [1, 11]: −20%±5%
Contraction response to phenylephrine from resting force (maximum response) [2, 7]: 2.03 ± 0.13 ^b grams of tension
Contraction response to phenylephrine from resting force (maximum response) [2, 8]: 0.20 ± 0.01^b grams of tension
Contraction response to phenylephrine from resting force (maximum response) [2, 9]: −1.08 ± 0.19^b grams of tension
Constriction response to the maximum concentration of phenylephrine, % of KCl response [2, 10]: 19%±8%
Constriction response to the maximum concentration of phenylephrine, % of KCl response [2, 14]: 1%±4%
Constriction response to the maximum concentration of phenylephrine, % of KCl response [2, 11]: −12%±4%
Maximum relaxation response to the highest concentration of acetylcholine ([3]; after 24 hours of storage): 57%±6%
Maximum relaxation response to the highest concentration of acetylcholine ([3]; after 48 hours of storage): 30%±5%
Maximum relaxation response to the highest concentration of acetylcholine ([3]; at 2 hours of storage): 61%±5%
Attenuation of vasoconstriction response to PE, % of control ([4]; 10 μM PBZ): 63%
Contraction at the highest concentration of PE, % of the KCl response ([4]; 10 μM PBZ 30 min in addition to papaverine/lidocaine): 16.5±4.3%
Attenuation of vasoconstriction response to PE, % of control ([4]; 100 μM PBZ): 80%
Contraction at the highest concentration of PE, % of the KCl response ([4]; 100 μM PBZ 30 min in addition to papaverine/lidocaine): 8.7±5.1%
Attenuation of vasoconstriction response to PE, % of control ([4]; 1000 μM PBZ): 116%
Contraction at the highest concentration of PE, % of the KCl response ([4]; 1000 μM PBZ 30 min in addition to papaverine/lidocaine): −7.2±4.4%
Effect on constriction to NE (in words) ([5]; PBZ at 10 μM): inhibited constriction to concentrations of NE greater than 7 μM
Effect on constrictor responses to NE (in words) ([5]; PBZ at 1000 μM, across all concentrations of NE): completely inhibited
Relaxation response to ACh (percent tension reduction from U46619 contraction) [6]: 81.0±11.8%
